Consider 17 compounds from patent US20040254094A1, “Suppression of cyclin kinase activity for prevention and treatment of infections” (priority 2000, published 2004).

Where two headings read alike, the source gives them in different places.

Data set [1] concerns Human Cytomegalovirus. Kind of data set: Infectious HCMV yield by plaque assay from infected density-arrested LU cells. The class given is cell-based, Human cytomegalovirus strain AD169. Particulars: for inhibition at 3.3 µM / inhibition at 10 µM / inhibition at 33 µM / inhibition at 100 µM: Human betaherpesvirus 5, 96 h.
In data set [2] the test system is CDK1/cyclin B. Particulars: cited from earlier work.
Data set [3] concerns HCMV. Kind of data set: HCMV DNA abundance by slot blot hybridization in infected density-arrested LU cells. Particulars: 72 hr post-infection. In kind it is cell-based, Human cytomegalovirus strain AD169.
Data set [4] relates to non-infected LU cells. Kind of data set: Hematoxylin and eosin staining of non-infected LU cells. In kind it is cell-based, human. Particulars: 15 μM for 96 hr.
The nature of data set [5]: Tolerated dose in animals. In kind it is in vivo. Particulars: printed 'tolerated by rate'. An excerpt: The preferred dosage of CDK inhibitor in a parenteral administration may vary, depending upon the extent of the virus infection, the severity of the symptoms associated with the infection and patient age, weight and medical history. The number of administrations of the parenteral composition of the CDK inhibitor will also vary according to the response of the individual patient to the treatment. In one exemplary application, the dosage of CDK inhibitor may vary with the type of disease and the route of administration. Further studies with animal models of infection will completely define projected doses. […] Weaker CDK2 inhibitors will be needed at higher concentrations, and stronger, at lower.

Data set [6] deals with HCMV-infected LU cells. Kind of data set: Hematoxylin and eosin staining of HCMV-infected LU cells.
Data set [7] relates to HCMV. Kind of data set: Viral late antigen pp28 expression by immunofluorescence in HCMV-infected LU cells. In kind it is cell-based, Human cytomegalovirus. Particulars: between 24 and 96 hr after infection in the presence of PAA. Here is the method: Cells were cultured on sterile glass coverslips. The cells were washed three times in PBS and fixed in acetone:methanol (1:1) at −20° C. for 10 min. The permeabilized cells were incubated with primary antibody diluted in PBS for 1 hr at 37° C. in a humidified chamber. […] The excess conjugate was removed by washing the cells in PBS for 30 min. After drying, the cells were mounted in PBS/glycerol (1:1) and examined with the aid of a Zeiss Photomicroscope III using a 40/1.0 Neofluar lens. Images were photographed on slide film.

Data set [8] has as its system human lung fibroblasts. Particulars: 100 μg/ml (0.75 mM); cited from earlier work.
Data set [9] has as its system LU cells. Particulars: within 24 hr after serum in the presence of PAA (about 68% without inhibitor).
Text: The specificity of PAA was confirmed by measuring cellular DNA content after serum stimulation of quiescent LU cells in the presence and absence of PAA.
The subject of data set [10] is HCMV-infected subconfluent LU cells. Kind of data set: Cell cycle distribution (DNA content, flow cytometry) following HCMV infection of subconfluent LU cells. Particulars: for Percent cells in phase G0/G1 / Percent cells in phase G2/M / Percent cells in phase S: HCMV 5 PFU/cell + PAA 100 μg/ml, mean (SD). A general note: Flow cytometry measures light scatter and fluorescence of single cells or particles in a stream.
Experimental: The DNA content of serum-arrested, HCMV-infected, subconfluent LU cells was analyzed by flow cytometry to determine to what extent productively infected cells initiate DNA synthesis.
Next, the DNA content of LU cells as a function of time after HCMV infection of subconfluent cells in the presence of PAA was analyzed.

Where [11] appears, read: 3.3 μM, harvested 96 hrs, read-out: Percent inhibition of HCMV infectious yields.
Setting [12] is: 10 μM (third line of each group), harvested 96 hrs, read-out: Percent inhibition of HCMV infectious yields.
The mark [13] stands for this setting: 10 μM, harvested 96 hrs, read-out: Percent inhibition of HCMV infectious yields.
Setting [14] is: 33 μM, harvested 96 hrs, read-out: Percent inhibition of HCMV infectious yields.
[15] abbreviates: 100 μM, harvested 96 hrs, read-out: Percent inhibition of HCMV infectious yields.
Setting [16] is: read-out: Percent inhibition of HCMV infectious yields, 3.3 μM, harvested 96 hrs.
The mark [17] stands for this setting: read-out: Percent inhibition of HCMV infectious yields, 10 μM (third line of each group), harvested 96 hrs.
[18] abbreviates: read-out: Percent inhibition of HCMV infectious yields, 10 μM, harvested 96 hrs.
The mark [19] stands for this setting: read-out: Percent inhibition of HCMV infectious yields, 33 μM, harvested 96 hrs.
Setting [20] is: read-out: Percent inhibition of HCMV infectious yields, 100 μM, harvested 96 hrs.
[21] abbreviates: 10 μM (third line of each group), harvested 96 hrs.

As a reminder, the inhibition is the share of the control response that was lost under treatment. As to `CN1CC[C@H](c2c(O)cc(O)c3c(=O)cc(-c4ccccc4Cl)oc23)[C@H](O)C1` [Flavopiridol], in data set [1] (setting [11]), the inhibition at 3.3 µM was 100%. In addition, the inhibition at 10 µM in data set [1] (setting [12]) and in [1] (setting [13]) was 100% each time. In data set [1] (setting [14]), the inhibition at 33 µM was 100%. In addition, in data set [1] (setting [15]), the inhibition at 100 µM was found to be 100%.
A word on the IC50: it is the concentration needed to halve the response being measured. With `Cc1ccc(C(=O)Nc2ccc(S(=O)(=O)O)c3cc(S(=O)(=O)O)cc(S(=O)(=O)O)c23)cc1NC(=O)c1cccc(NC(=O)Nc2cccc(C(=O)Nc3cc(C(=O)Nc4ccc(S(=O)(=O)O)c5cc(S(=O)(=O)O)cc(S(=O)(=O)O)c45)ccc3C)c2)c1` [Suramin], the IC50 in data set [2] was 4 µM.
With `CC(C)=CCNc1ncnc2nc[nH]c12` [Isopentenyladenine], in data set [2], the IC50 is 55 µM.
For `COc1ccc(CNc2nc(N(CCO)CCO)nc3c2ncn3C(C)C)cc1` [CVT-313], the IC50 in data set [2] was 4.2 µM.
For the compound `CC[C@H](CO)Nc1nc(NCc2ccccc2)c2ncn(C(C)C)c2n1` [Roscovitine], in [3] (1 μM), the “HCMV DNA abundance reduced by” value is on record as roughly 50%. Further, the “viral DNA abundance reduced by” value in [3] (10 μM) is greater than 90%. The “Infectious HCMV yields reduced by” value in data set [1] (2.5 μM, 96 hr post-infection) was greater than 90%. Also, in [1] (setting [16]), the inhibition at 3.3 µM amounted to 90.7%. Further, the inhibition at 10 µM in [1] (setting [17]) was 96.5%; in [1] (setting [18]), 91.3%; in data set [1] (read-out: inhibition of infectious HCMV yields, 10 μM, 96 hr post-infection), greater than 99.9%. Besides, the inhibition at 33 µM in data set [1] (setting [19]) was 100%. For the same compound, the inhibition at 100 µM in data set [1] (setting [20]) was greater than 100%. For the same compound, the “morphological changes of non-infected cells” value in data set [4] is given as “no morphological changes”. Moreover, in [5], the tolerated dose came to 3 µg/kg. In addition, the “morphology of HCMV-infected cells” value in data set [6] (5 μM, 96 hr post-infection) is “rounded and appeared to be undergoing cell death”; in data set [6] (15 μM, 96 hr after infection), “clearly dying or dead”.
`CC(C)[C@H](CO)Nc1nc(Nc2cc(N)cc(Cl)c2)c2ncn(C(C)C)c2n1` [NG97, aminopurvalanol]: in data set [1] (setting [11]), the inhibition at 3.3 µM came to 99.9%. For the same compound, the inhibition at 10 µM stood at 100% in data set [1] (setting [12]) and 51.3% in data set [1] (setting [13]). For the same compound, the inhibition at 33 µM in [1] (setting [14]) came out at 100%. Besides, the inhibition at 100 µM in data set [1] (setting [15]) worked out at 100%.
`Cc1c2ccncc2c(C)c2c1[nH]c1ccc(O)cc12` [9-hydroxyellipticine]: the IC50 in data set [2] is 1 µM.
For `OCCCNc1cc(-c2ccnc(Nc3cccc(Cl)c3)n2)ccn1` [CGP60474], the IC50 in data set [2] is 0.02 µM.
For `CN(C)c1ncnc2nc[nH]c12` [6-Dimethylaminopurine], the IC50 in data set [2] is 120 µM.
As for `O=C1CCCO1` [γ-Butyrolactone], in [2], the IC50 is 0.6 µM.
Consider `N#Cc1cn([C@@H]2O[C@H](CO)[C@@H](O)[C@H]2O)c2ncnc(N)c12` [Toyocamycin], for which the IC50 in data set [2] was 0.88 µM.
For Indirubin-3′-monoxime, the “Percent inhibition of HCMV infectious yields” value in data set [1] (3.3 μM, harvested 96 hrs) came to 56.69%; in data set [1] (setting [21]), 99.9988%; in data set [1] (10 μM, harvested 96 hrs), 26.67%; in data set [1] (33 μM, harvested 96 hrs), 99.9976%; in data set [1] (100 μM, harvested 96 hrs) it was 99.9992%. For the same compound, the IC50 in data set [2] was 0.18 µM.
Take `O=C1Cc2c([nH]c3ccc([N+](=O)[O-])cc23)-c2ccccc2N1` [Alsterpaullone]: in data set [1] (setting [16]), the inhibition at 3.3 µM is 100%. In addition, the inhibition at 10 µM in [1] (setting [17]) and in data set [1] (setting [18]) was 100% each time. Besides, the inhibition at 33 µM in data set [1] (setting [19]) worked out at 100%. In data set [1] (setting [20]), the inhibition at 100 µM amounted to 100%.
With `O=C(O)CP(=O)(O)O` [PAA, phosphonoacetic acid], in data set [7], the pp28 expression result was “could not be detected”. The “viral DNA replication” value in data set [8] is on record as “blocks viral DNA replication”. In addition, in [9], the “cells in S, G2, or M phase” value is “about 57%”. For the same compound, the “Percent cells in phase G0/G1” value in data set [10] (0 hrs after treatment) is listed as 93.3 (1.2) %; in data set [10] (24 hrs), 97.2 (0.4) %; in data set [10] (48 hrs) it was 97.1 (0.8) %; in data set [10] (72 hrs) it was 97.2 (0.3) %. Also, the “Percent cells in phase G2/M” value in data set [10] (0 hrs after treatment) is on record as 5.1 (1.0) %; in [10] (24 hrs), 1.9 (0.3) %; in data set [10] (48 hrs), 1.3 (0.4) %; in data set [10] (72 hrs) it was 0.9 (0.1) %. Moreover, the “Percent cells in phase S” value in [10] (0 hrs after treatment) is on record as 1.6 (0.2) %; in data set [10] (24 hrs), 0.9 (0.1) %; in [10] (48 hrs) it was 1.5 (0.4) %; in [10] (72 hrs), 1.9 (0.3) %. In addition, the “DNA content of LU cells after HCMV infection in the presence of PAA” value in data set [10] (subconfluent cells) is reported as “no detectable increase in DNA content”.
In the case of Purvalanol A&B, in data set [2], the IC50 is 0.004 µM.
As for `CN[C@@H]1C[C@H]2O[C@@](C)([C@@H]1OC)n1c3ccccc3c3c4c(c5c6ccccc6n2c5c31)C(=O)NC4` [Staurosporine], the IC50 in data set [2] was 0.004 µM.
In the case of `CCCCc1c(-c2ccc(O)cc2)[nH]c2nccnc12` [RP107], the “Percent inhibition of HCMV infectious yields” value in [1] (3.3 μM, harvested 96 hrs) is on record as 96.67%; in data set [1] (setting [21]) it was 99.98%; in data set [1] (10 μM, harvested 96 hrs), 74.67%; in [1] (33 μM, harvested 96 hrs) it was 99.9968%; in data set [1] (100 μM, harvested 96 hrs), 99.9984%.
